Data taken from patent US11427544B2, “Histone deacetylase 6 inhibitors and use thereof” (TAIPEI MEDICAL UNIVERSITY, priority 2016, dated 2022).

What was measured:
HDAC6 = target: T1, HDAC6 (Homo sapiens, UniProt Q9UBN7); experiment: Fluorogenic HDAC assay, HDAC6; assay type: biochemical
T1 construct: purchased BPS Bioscience Corp
T1 sequence (Q9UBN7 1-1215): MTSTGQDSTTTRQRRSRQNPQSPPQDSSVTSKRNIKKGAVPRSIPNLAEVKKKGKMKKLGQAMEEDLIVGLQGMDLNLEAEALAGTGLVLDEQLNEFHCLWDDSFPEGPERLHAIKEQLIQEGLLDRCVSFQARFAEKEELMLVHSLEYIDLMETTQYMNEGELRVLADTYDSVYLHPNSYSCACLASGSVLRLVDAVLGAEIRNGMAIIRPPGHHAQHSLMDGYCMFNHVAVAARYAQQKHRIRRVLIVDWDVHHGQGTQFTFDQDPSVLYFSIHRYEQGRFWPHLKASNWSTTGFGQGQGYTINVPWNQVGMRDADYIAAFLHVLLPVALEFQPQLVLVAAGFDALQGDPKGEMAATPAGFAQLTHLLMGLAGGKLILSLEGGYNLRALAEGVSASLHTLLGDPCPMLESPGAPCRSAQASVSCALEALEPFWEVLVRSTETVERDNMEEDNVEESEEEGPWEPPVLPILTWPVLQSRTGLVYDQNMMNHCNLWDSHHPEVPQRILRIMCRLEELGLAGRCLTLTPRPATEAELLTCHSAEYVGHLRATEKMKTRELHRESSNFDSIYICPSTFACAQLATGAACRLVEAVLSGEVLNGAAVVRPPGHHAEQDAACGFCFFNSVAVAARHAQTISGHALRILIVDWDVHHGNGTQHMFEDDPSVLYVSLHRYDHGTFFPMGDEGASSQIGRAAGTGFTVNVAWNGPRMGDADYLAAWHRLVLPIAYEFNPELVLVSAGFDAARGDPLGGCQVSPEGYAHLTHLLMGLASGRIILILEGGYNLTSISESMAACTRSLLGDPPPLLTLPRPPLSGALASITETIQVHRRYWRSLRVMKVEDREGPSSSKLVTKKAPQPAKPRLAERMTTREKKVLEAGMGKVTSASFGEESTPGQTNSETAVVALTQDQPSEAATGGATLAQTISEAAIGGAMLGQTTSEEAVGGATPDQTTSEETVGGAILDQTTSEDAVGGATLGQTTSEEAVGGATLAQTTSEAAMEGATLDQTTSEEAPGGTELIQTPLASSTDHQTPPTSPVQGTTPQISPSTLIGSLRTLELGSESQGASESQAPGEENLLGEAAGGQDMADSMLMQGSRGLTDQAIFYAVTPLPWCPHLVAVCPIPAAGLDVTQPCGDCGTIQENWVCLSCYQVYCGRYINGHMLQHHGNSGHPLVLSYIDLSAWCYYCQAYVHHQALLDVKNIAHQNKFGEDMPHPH
Description: Of note, there are eighteen human HDACs. Eleven of them, designated as HDAC1-11, are zinc-dependent. Seven of them, designated as Sirt1-7, are NAD+-dependent.
Fluorogenic HDAC assay kits were used to assess the ability of HDAC inhibitors to inhibit deacetylation of lysine residues on a substrate by recombinant proteins HDAC1, 3, 4, 5, 6, 7, 8, 9 and Sirt1 according to the manufacturer's instructions (BPS Bioscience Corp., San Diego, Calif., USA).

[1] = tested on: A549 lung cancer cell line; experiment: Antiproliferative activity, A549; assay type: cell-based, human; settings: Homo sapiens
Procedure: A study was conducted to evaluate the inhibitory activity of compounds of Formula (I) in inhibiting HDAC6, antiproliferative activity of test compounds in suppressing cancer cell growth, and selectivity of inhibiting HDAC6 over other HDAC isoforms.
The study was performed according to the protocol reported in Hsieh et al., Cell Death and Disease, 2014, April; 5:e1166.
Shown in Table 2 below are antiproliferative activities (measured by their half maximal concentration for inhibiting cell growth, i.e., GI50) of the test compounds against various cancer cell lines.

HDAC6-dynein binding = target: T2, HDAC6-dynein binding (Homo sapiens, UniProt Q9UBN7); experiment: HDAC6-dynein binding (immunoprecipitation, immunoblotting); assay type: cell-based; settings: dose-dependent
T2 construct: endogenous in cells
Procedure: (§1) A study was conducted to evaluate the activity of a compound of Formula (I) in inhibiting HDAC6-dynein binding and inducing accumulation of polyubiquited proteins.
(§2) Cell lysates were immunoprecipitated overnight at 4° C. with 1 μg of dynein antibody and A/G-agarose beads. The precipitated beads were washed three times with 1 mL of an ice-cold cell lysis buffer solution. The resulting immune complex was resolved by 10% SDS-PAGE gel electrophoresis, followed by immunoblotting assay using anti-HDAC6 Ab.
(§3) The study was performed according to the protocol reported in Chen et al., Journal of Immunology, 2008, 181(12):8441-8449.

polyubiquited proteins = experiment: Accumulation of polyubiquited proteins; assay type: cell-based; settings: dose-dependent
Procedure: as §1, §2, §3

[2] = tested on: HL-60 Acute promyelocytic leukemia; experiment: Tumor growth inhibition, HL-60 xenograft; assay type: in vivo, athymic nude mice; settings: qd, intraperitoneal
Procedure: An in vivo study was conducted to evaluate the efficacy of compounds of Formula (I) in suppressing tumor growth in multiple human cancer types.
Eight-week-old athymic nude mice were group-housed under conditions of constant photoperiod (12 h light/12 h dark at 21-23° C. and 60-85% humidity) with ad libitum access to sterilized food and water. All animal experiments followed ethical standards, and protocols were reviewed and approved by the Animal Use and Management Committee of National Taiwan University. Each mouse was inoculated subcutaneously with 1×10^6˜1×10^7 human cancer cells in a total volume of 0.1 mL serum-free medium containing 50% Matrigel (BD Biosciences). As tumors became established (˜100 mm^3), mice were randomized to various groups to be treated with pre-determined materials (n=6-8/group): (i) control group: 0.5% DMSO/0.5% Cremophor/90% D5W and (ii) treatment groups: Compounds 12 and 28 at pre-determined doses daily. Mice received treatment by intraperitoneal injection for the duration of the study. Tumors were measured weekly using calipers. Tumor size, in mm^3, was calculated according to the formula: Tumor volume=(w^2×l)/2, where w and 1 respectively represent the width and length (both in mm) of the tumor.

[3] = tested on: scopolamine-induced memory deficit; experiment: Elevated plus maze test, scopolamine-treated rats; assay type: in vivo; settings: gavage twice daily for seven days; scopolamine 1.5 mg/kg i.p.
Procedure: An in vivo study was conducted to evaluate the efficacy of compounds of Formula (I) in improving memory deficits associated with Alzheimer's disease. Compound 12, Compound 28, suberanilohydroxamic acid (50 mg/kg) or vehicle was given to rats by gavage twice daily for seven days prior to behavioral experiments. On the day conducting a behavior assessment, rats in all groups except the control group were administered scopolamine (1.5 mg/kg) by intraperitoneal injection for 30 minutes before the assessment, then a water maze test or an elevated plus maze test was performed. […] The significant reduction in transfer latency time indicated improvement in memory.

O=C(NO)c1ccc(CNc2cccc3cccnc23)cc1 [Compound 28, N-hydroxy-4-((quinolin-8-ylamino)methyl)benzamide]
IC50 (HDAC6): 4.41 nM
GI50 [1]: 5240 ± 180 nM
HDAC6-dynein binding (HDAC6-dynein binding): inhibited HDAC6-dynein binding
accumulation of polyubiquited proteins (polyubiquited proteins): induced accumulation of polyubiquited proteins
% TGI ([2]; 25 mg/kg): 47.4%
% TGI ([2]; 50 mg/kg): 61.1%
transfer latency time (elevated plus maze) [3]: significantly rescued scopolamine-mediated increase of transfer latency time
